Positions of bridges follow the written chain, without caps; N, C: chain ends. Non-standard residues stand in square brackets, D forms with d. Residues, ends and D or L forms follow the SMILES beside them. No end group written: not given here. *: point of attachment. Biotin = O=C1N[C@H]2[C@H](CS[C@H]2CCCCC(=O)*)N1
What was measured:
5-8F = assay: Apoptosis by Cleaved Caspase 3/7 kit, flow cytometry; assay type: cell-based; details: FIG. 6B
Procedure: (§1) Therapeutic effects of 35-AP peptide were assessed by Cleaved Caspase 3/7 kit. Detailed steps were as followed: • 1) After the cells were planked for 24 hours, the peptide dissolved by 1640 was incubated with cells at 37° C. for four hours; • 2) Trypsinizing cells with TrypLE Expression, counting and adjusting the concentration to 1.0*10^6 cells/ml, and transferring 300 μl into flow cytometry tube; • 3) Adding 10 μl 30*FLICA working solution; • 4) Incubating the cells at 37° C. with 5% CO2 for one hour, and mixing once every 15 minutes; • 5) Washing with 2 ml Washing buffer, then centrifuging at 400 g force for 5 minutes; • 6) Re-suspending the precipitate with 1 ml Washing buffer; • 7) Detecting the staining signal using flow cytometer.

CNE1 = assay: as above; assay type: cell-based; details: FIG. 6B
Procedure: as §1

CNE2 [1] = assay: as above; assay type: cell-based; details: FIG. 6A
Procedure: as §1

HONE1 = assay: as above; assay type: cell-based; details: FIG. 6B
Procedure: as §1

SUNE1 = assay: as above; assay type: cell-based; details: FIG. 6B
Procedure: as §1

CNE2 [2] = assay: Cleaved Caspase3 cellular immunofluorescence assay; assay type: cell-based; details: incubated with CNE2; FIG. 6C
CNE2 cells [3] = assay: Therapeutic effect of 35-AP peptide in tumor-bearing mice; assay type: in vivo, BALB/C nude mice; details: 200 μg intravenously every other day 6 times, compared with two control groups, FIG. 6E
Procedure: Injecting 35-AP peptide to tumor-bearing mice to detect its therapeutic effect. Detailed steps were as follows: • 1) Selecting twenty four 4-week-old BALB/C nude mice; • 2) Trypsinizing CNE2 cells, counting and adjusting the concentration to 1.0*10^6 cells/ml, and re-suspending cells with 200 μl RPMI 1640 medium containing 20% Matrigel, then subcutaneously injecting 200 μl re-suspended cells into the nude mice; • 3) Observing and measuring the size of tumor after 1-2 weeks. Based on the tumor size, the mice were randomly divided into three groups (PBS, Control AP and 35-AP); • 4) Intravenously injecting 200 μl PBS or 200 μg fluorescence peptide dissolved in 200 μl PBS every other day for 6 times in total. Measuring the length and width of tumor before and after injection. The volume of tumor=0.52*(length*width*width); • 5) Performing statistical analysis of the size of tumors.

[4] = test system: nasopharyngeal carcinoma cell CNE2; assay: Flow cytometry analysis of binding of Cy5-35 peptide; assay type: cell-based; details: 5 μM or 10 μM, on ice 30 minutes; FIG. 1C
Procedure: Flow cytometry analysis was applied to detect the binding affinity of Cy5-35 peptide to nasopharyngeal carcinoma cell CNE2. Firstly, the 35 peptide and control peptides separately coupled with fluorescent dye Cy5 were synthesized. Then, Cy5-35 peptide were incubated with cells. At the end, the binding efficacy was calculated using the flow cytometry analysis. Detailed steps were as followed: • 1) Trypsinizing cells, counting and adjusting the concentration to 1.0*10^6 cells/tube, and re-suspending cells with 200 μl RPMI 1640 medium; • 2) Adding Cy5-Control peptide or Cy5-35 peptide dissolved with PBS at a concentration of 5 μM or 10 μM, then incubating on ice for 30 minutes. • 3) Washing with 1 ml PBS, then centrifuging at 400 g force for 5 minutes; repeating this step twice; • 4) Re-suspending the precipitate with 1 ml TBS, • 5) Conducting the flow cytometry analysis.

[5] = test system: nasopharyngeal carcinoma cells CNE2; assay: Flow cytometry analysis of cell penetration; assay type: cell-based; details: 37° C. two hours; FIG. 2B
Description: The flow cytometry analysis was applied to detect whether phage 35 can penetrate the nasopharyngeal carcinoma cells CNE2.

[6] = test system: tumor vessels and tumor cells; assay: Targeting and penetrating tumor vessels and tumor cells, frozen section and immunohistochemical assay; assay type: in vivo, BALB/C nude mice; details: 300 μg
Procedure: Cy5-35 peptide is tested to target and penetrate the vessels using the frozen section and immunohistochemical assay. Detailed steps were as followed: • 1) Using nine 4-week-old BALB/C nude mice • 2) Trypsinizing cells, counting and adjusting the concentration to 1.0*10^6 cells/ml, and re-suspending cells with 200 μl RPMI 1640 medium containing 20% Matrigel, then subcutaneously injecting into the nude mice; • 3) Observing and measuring the size of tumor after 1-2 weeks. Based on the tumor size, the mice were randomly divided into three groups (PBS, Cy5-Control and Cy5-35, three mice in each group); • 4) Intravenously injecting 200 μl PBS or 300 μg fluorescence peptide dissolved in 200 μl PBS; • 5) Obtaining the tumor tissues, and making frozen sections and cutting slides, storing at −80° C.; • 6) Fixing the slides in cooled acetone for 10 min, washing 5 times with PBS for 5 minutes; • 7) Soaking the slides with 3% H2O2 to remove endogenous peroxidase and then washing 3 times with 1 ml PBS for 5 minutes; • 8) Blocking with 10% BSA for 20 minutes at room temperature; • 9) Incubating with anti-CD31 mouse first antibody at 4° C. overnight; • 10) Washing 3 times with PBS for 5 minutes; • 11) Incubating anti-mouse FITC second antibody at room temperature for one hour, keeping it away from light, and then washing 3 times with 1 ml PBS for 5 min; • 12) Adding DAPI at room temperature and keeping for 5 minutes and then washing 3 times with 1 ml PBS for 5 minutes; • 13) Covering the slides with anti-fade, then observing the slides under the laser confocal microscope

nasopharyngeal carcinoma = assay: Near-infrared fluorescence imaging of tumor, small animal imaging; assay type: in vivo, BALB/C nude mice; details: 24 hours after intravenous injection
Procedure: (§2) Cy5-35 peptide distribution was examined in the different organs and tumors of nude mice. Small animal imaging assay was operated as followed: • 1) Using nine 4-week-old BALB/C nude mice; • 2) Trypsinizing cells, counting and adjusting the concentration to 1.0*10^6 cells/ml, and re-suspending cells with 200 μl RPMI 1640 medium containing 20% Matrigel, then subcutaneously injecting into the nude mice; • 3) Observing and measuring the size of tumor after 1-2 weeks. Based on the tumor size, the mice were randomly divided into three groups (PBS, Cy5-Control and Cy5-35, 3 mice in each group); • 4) Intravenously injecting 200 μl PBS or 300 μg fluorescence peptide dissolved in 200 μl PBS; the peptide distribution is detected in both normal organs and tumor using Caliper IVIS Lumina II; • 5) Obtaining normal organs and the tumor tissues, homogenizing them, and calculating the fluorescence intensity of normal organs and the tumor for statistical analysis.

MDA-MB-231 = assay: Near-infrared fluorescence imaging in MDA-MB-231 nude mice model; assay type: in vivo; details: FIG. 4D
Procedure: as §2
To detect whether Cy5-35 peptide can apply to other tumors, the peptides were applied to MDA-MB-231 nude mice model.

CNE2 cells [7] = details: 37° C. two hours
Procedure: The cellular immunofluorescence assay was applied to detect whether Biotin-35 peptide can penetrate CNE2 cells. Detailed steps were as followed: • 1) Incubating Biotin-35 peptide or Biotin-control peptide with cells at 37° C. for two hours; • 2) Washing three times with 1 ml PBS for 5 minutes; • 3) Fixing the cells with 4% paraformaldehyde for 10 minutes; • 4) Incubating cells with 0.1% Triton-X100 for 5 minutes; • 5) Blocking with 5% BSA for 30 minutes; • 6) Washing with 1 ml PBS twice; • 7) Adding FITC-streptavidin and avoiding light for one hour; • 8) Washing three times with 1 ml PBS for 5 minutes; • 9) Adding DAPI at a ratio of 1:2000 and keeping it away from light at room temperature for 5 minutes, • 10) Washing with 1 ml PBS for 5 minutes, • 11) Mounting samples with Anti-fade, and observing the samples under the laser confocal microscope.

[8] = test system: nasopharyngeal carcinoma cell line, CNE2; assay: Blocking test in phage counting assay (35 peptide blocks phage 35 binding); assay type: cell-based; details: FIG. 1B
Procedure: The phage counting assay was conducted to first test the binding ability of phage 35 to nasopharyngeal carcinoma cell line, CNE2 and then test whether the 35 peptide can block the binding of the phage 35 to CNE2. The process will be described in detail hereinafter. • 1) Trypsinizing cells, counting to obtain 1.0*10^6 cells/tube, and re-suspending cells with 200 μl RPMI (Roswell Park Memorial Institute) 1640 medium; • 2) For the blocking test, adding the 35 peptide at a corresponding concentration and incubating on ice for 30 minutes (the binding assay skips this step and directly goes to the third step); • 3) Adding 1.0*10^8 phages, and incubating on ice for binding for one hour; • 4) After washing with 1 ml PBS (Phosphate Buffered Saline), the resulting products were centrifuged at 400 g force for 5 min; repeating this step three times; • 5) Re-suspending the precipitate with 1 ml TBS (Tris Buffered Saline), diluting the resulting suspension liquid 10^3-10^4 fold, and only taking 100 μl for phage count assay; • 6) Inoculating BL21 competent cell for T7 phage with 1:100 v/v, then shaking at 200 RPM at 37° C. for four hours until OD600 (Optical Density at a wavelength of 600 nm) reaches 0.5-1.0 when the bacteria are on the logarithmic phase. […] The titer of phage was calculated based on the diluted factors.

[9] = 2 h after intravenous injection, FIG. 3B

## CC(C)C[C@@H](NC(=O)[C@H](N)CCCCN)C(=O)N[C@H](C)C(=O)N[C@H](CCCCN)C(=O)N[C@H](CC(C)C)C(=O)N[C@H](C)C(=O)N[C@H](CCCCN)C(=O)N[C@H](CCCCN)C(=O)N[C@H](CC(C)C)C(=O)N[C@H](C)C(=O)N[C@H](CCCCN)C(=O)N[C@H](CC(C)C)C(=O)N[C@H](C)C(=O)N[C@H](CCCCN)C(=O)NCC(=O)NCC(=O)N[C@H]1CSSC[C@@H](C(=O)O)NC(=O)[C@H](C)NC(=O)[C@H](CC(N)=O)NC(=O)[C@H](CCC(=O)O)NC(=O)[C@H](CC(=O)O)NC(=O)[C@H](Cc2ccc(O)cc2)NC(=O)[C@H](Cc2c[nH]c3ccccc23)NC(=O)[C@H](CCCNC(=N)N)NC1=O [35-AP peptide, D (KLAKLAKKLAKLAK)-GG-CRWYDENAC] (H-[dK][dL][dA][dK][dL][dA][dK][dK][dL][dA][dK][dL][dA][dK]GGCRWYDENAC-OH; disulfide 17-25 (inferred); N-terminus and C-terminus assumed)
5-8F
  cell apoptosis in 5-8F: also led to cell apoptosis
CNE1
  cell apoptosis in CNE1: also led to cell apoptosis
CNE2 [1]
  apoptosis in CNE2: can significantly promote the apoptosis
HONE1
  cell apoptosis in HONE1: also led to cell apoptosis
SUNE1
  cell apoptosis in SUNE1: also led to cell apoptosis
CNE2 [2]
  cleaved Caspase3 activation: cleaved Caspase3 was activated
CNE2 cells [3]
  tumor volume: reduced the tumor volume markedly

## D (KLAKLAKKLAKLAK-GG-CRWYDENAC) (KLAKLAKKLAKLAKGGCRWYDENAC; D-amino acids) [(35-AP)D]
CNE2 [1]
  apoptosis in CNE2: also activated the apoptosis of CNE2

## Cy5-CRWYDENAC (disulfide 1-9) [Cy5-35 peptide]
[4]
  binding to CNE2 cells (flow cytometry): binds to CNE2 cells in a dose-dependent manner
[5]
  penetration into CNE2 (flow cytometry): penetrates into CNE2 in a dose-dependent manner
[6]; [9]
  co-localization with vessel marker CD31 in tumor: co-localized with vessel marker CD31
  penetration of tumor vessels and tumor cells: part of Cy5-35 peptides penetrated the tumor vessels and tumor cells
[6]; half an hour after intravenous injection, FIG. 3A
  co-localization with vessel marker CD31 in tumor: co-localized with vessel marker CD31
Nasopharyngeal carcinoma; FIG. 4A
  enrichment in tumor (NIR imaging): significantly enriched in tumor
Nasopharyngeal carcinoma; FIG. 4B
  residual peptide in lung (NIR imaging): certain residual peptides in lung
Nasopharyngeal carcinoma; FIG. 4C
  intensity of fluorescence in tumor versus other organs: significantly stronger than that in other organs
MDA-MB-231
  breast cancer imaging: can also be applied in breast cancer imaging

## D (KLAKLAKKLAKLAK) (D-amino acids) [AP peptide, reference compound]
CNE2 [1]
  apoptosis in CNE2: cannot induce the apoptosis in CNE2

## Biotin-CRWYDENAC (cysteine pairing not given here) [Biotin-35 peptide]
CNE2 cells [7]
  penetration into CNE2 (cellular immunofluorescence): is able to penetrate into CNE2

## CRWYDENAC (disulfide 1-9) [35 peptide]
[8]
  blocking of phage 35 binding to CNE2: prevents phage 35 from binding to CNE2 in a dose-dependent manner
CNE2 [1]
  apoptosis in CNE2: cannot induce the apoptosis in CNE2
